Source: US5132432A, “Chemically reactive pyrenyloxy sulfonic acid dyes” (Molecular Probes, Inc., priority 1989, dated 1992)
Counter-ions that a name gives are not always drawn.

Tests used:
[1] = Solubility in water / aqueous solution; settings: solubility of the reactive form of the dye; grade in words
[2] = Comparison of spectral properties of reactive dyes, Table 1; type: physicochemical; settings: for ε: at first maximum; for Abs Max: first maximum; for Emission Bandwidth / Emission Bandwidth [cm^-1]: full bandwidth at half peak height; for Quantum Yield: in aqueous solution, grade in words; for % Emission at 514 nm: percent of maximum emission at 514 nm
Text: A number of dyes have been proposed in the literature that can be excited and detected at wavelengths less than 500 nm. Several chemically reactive fluorophores that can be excited in the near ultraviolet and short wavelength visible region of the spectrum have been described. […] These proposed tracers are derived from naphthalene derivatives such as 5-dimethylaminonaphthalene-1-sulfonic acid (Dansyl) [Weber, Biochem. J. 41:145 (1952); Rinderknecht, Experientin 16:430 (1960)], 3-(isothiocyanato)naphthalene-1,5-disulfonic acid [Braunitzer, et al., Hoppe-Seyler's Z. Physiol. […] Chem. 358:505 (1977)], pyrene derivatives such as pyrene-1-butyric acid (PBA) [Malencik & Anderson, Biochemistry 11:3022 (1972)], 8-isothiocyanatopyrene-1,3,6-trisulfonic acid (IPTS) [Braunitzer,et al., Hoppe-Seyler's Z. Physiol. Chem. 354:1536 (1973)] and 8-hydroxypyrene-1,3,6-trisulfonyl chloride [Wolfbeis, Fresenies Z. Anal. Chem. 320:271 (1985)], stilbene derivatives such as 4-acetamido-4'-isothiocyanatostilbene-2,2'-disulfonic acid (SITS) [Cornelisse & Ploem, J. Histochem. Cytochem. 24:72 (1976)], and coumarin dyes such as 3-carboxy-7-hydroxycoumarin [Baker & Collis, J. Chem. Soc. 1949, S 12 (1949)], 7-hydroxy-4-methylumbelliferone-3-acetic acid (4-MUA) [Khalfan, et al., Biochem. J. 209:265 (1983)], 7-amino-4-methylcoumarin-3-acetic acid (AMCA) [Khalfan, et al., Histochem. J. 18:497 (1986)] and 7-diethylaminocoumarin [Staines, et al. (1988)].

[3] = Quantum yield relative to quinine sulfate; type: physicochemical; settings: in water
Text: An estimate of the quantum yield of the dyes relative to quinine sulfate (quantum yield=0.55 in 1N sulfuric acid) was obtained by integrating the emission spectrum of the dye excited at the same wavelength and optical density as the standard.

[4] = Spectral properties (absorption/emission) of new pyrenyloxy sulfonic acid dyes, Table 4; type: physicochemical; settings: 50 mM aqueous potassium phosphate buffer at pH 8.0; for Em Max: uncorrected
Method: Stock solutions were prepared by accurately weighing and dissolving 5-10 mg samples of the compounds in 2.000 ml water. A 10 μl aliquot of the stock solution was diluted into 2.00 ml of 50 mM potassium phosphate buffer at pH 8.0. Absorbance solutions were prepared by further diluting 200 μl of the diluted stock solution to 2.000 ml with 50 mM potassium phosphate buffer at pH 8.0. Absorption data was collected on an IBM Model 9420 UV/Visible Spectrophotometer and extinction coefficients were determined by standard Beer's Law calculations.
Uncorrected fluorescence data was obtained on a Perkin-Elmer Model 650-40 Fluorescence Spectrophotometer equipped with a Perkin-Elmer/Hitachi 057 X-Y Recorder using a ten- to twentyfold dilution of the absorbance solutions. Fluorescence of the pyrenyloxy sulfonic acid dyes was determined for the reactive dyes and for their conjugates with model compounds by dissolving the dye at a concentration above 1×10^-8M in an appropriate solvent such as water, methanol, ethanol, or dimethylsulfoxide and measurement of the fluorescence in a suitable instrument, such as a fluorescence spectrometer or fluorescence microscope or flow cytometer. Fluorescence could also be observed for the dyes in solution by visual inspection with illumination by a suitable source that emits light at wavelengths of less than 420 nm.

[5] = physiological range (pH 6 to 8); cited from earlier work
[6] = cited from earlier work
[7] = background statement; cited from earlier work
[8] = second (shorter-wavelength) maximum
[9] = first (longer-wavelength) maximum

Cc1c(CC(=O)O)c(=O)oc2cc(N)ccc12 [AMCA, 7-amino-4-methylcoumarin-3-acetic acid]
Water Solubility [1]: low | Em. Max. [2]: 442 nm | ε [2]: 15200 M⁻¹ cm⁻¹ | Abs Max [2]: 354 nm | Emission Bandwidth [2]: 57 nm | Emission Bandwidth [cm^-1] [2]: 2858 cm⁻¹ | Quantum Yield [2]: med. | % Emission at 514 nm [2]: 12 % of max

O=C(O)COc1cc(S(=O)(=O)[O-])c2ccc3c(S(=O)(=O)[O-])cc(S(=O)(=O)[O-])c4ccc1c2c43.[Na+].[Na+].[Na+] [Compound 2, 1,3,6-Trisulfo-8-pyrenyloxyacetic acid, trisodium salt]
Quantum Yield [3]: greater than 0.90 | Emission Band-width [4]: 52 nm | Emission at 514 nm [4]: 5.8 % of max | Em Max [4]: 430 nm | ε ([4]; at first maximum): 27.0 10^3 M^-1 cm^-1 | ε ([4]; at second maximum): 19.8 10^3 M^-1 cm^-1 | Abs Max [4, 8]: 374 nm

NCCNC(=O)COc1cc(S(=O)(=O)O)c2ccc3c(S(=O)(=O)O)cc(S(=O)(=O)O)c4ccc1c2c43 [Compound 3, 1,3,6-Trisulfo-8-pyrenyloxyacetamido-1-(2-aminoethane), trisodium salt]
Emission Band-width [4]: 50 nm | Emission at 514 nm [4]: 4.9 % of max | Abs Max [4, 9]: 399 nm

NCCCCCNC(=O)COc1cc(S(=O)(=O)O)c2ccc3c(S(=O)(=O)O)cc(S(=O)(=O)O)c4ccc1c2c43 [Compound 4, 1-(1,3,6-Trisulfo-8-pyrenloxyacetamido)-(5-aminopentane), trisodium salt]
Quantum Yield [3]: greater than 0.90 | Emission Band-width [4]: 50 nm | Emission at 514 nm [4]: 3.9 % of max | Em Max [4]: 422 nm | ε ([4]; at first maximum): 27.6 10^3 M^-1 cm^-1 | ε ([4]; at second maximum): 22.8 10^3 M^-1 cm^-1 | Abs Max [4, 8]: 377 nm

Cc1c(CC(=O)O)c(=O)oc2cc(O)ccc12 [Compound 4-MUA, 7-hydroxy-4-methylumbelliferone-3-acetic acid]
Water Solubility [1]: low | Em. Max. [2]: 454 nm | ε [2]: 19100 M⁻¹ cm⁻¹ | Abs Max [2]: 360 nm | Emission Bandwidth [2]: 58 nm | Emission Bandwidth [cm^-1] [2]: 2668 cm⁻¹ | Quantum Yield [2]: med. | % Emission at 514 nm [2]: 20 % of max | sensitivity to solution pH [5]: high sensitivity to solution pH

O=C(COc1cc(S(=O)(=O)O)c2ccc3c(S(=O)(=O)O)cc(S(=O)(=O)O)c4ccc1c2c43)NCCO [Compound 10]
Emission Band-width [4]: 50 nm | Emission at 514 nm [4]: 3.3 % of max | Abs Max [4, 9]: 399 nm | Abs Max [4, 8]: 377 nm

NNC(=O)COc1cc(S(=O)(=O)O)c2ccc3c(S(=O)(=O)O)cc(S(=O)(=O)O)c4ccc1c2c43 [Compound 11, 1,3,6-Trisulfo-8-pyrenyloxyacethydrazide, free sulfonic acid]
Emission Band-width [4]: 51 nm | Abs Max [4, 9]: 399 nm | Abs Max [4, 8]: 377 nm

N.N.N.NNC(=O)COc1cc(S(=O)(=O)O)c2ccc3c(S(=O)(=O)O)cc(S(=O)(=O)O)c4ccc1c2c43 [Compound 13, 1,3,6-Trisulfo-8-pyrenyloxyacethydrazide, triammonium salt]
Emission Band-width [4]: 50 nm | Emission at 514 nm [4]: 3.8 % of max | Abs Max [4, 9]: 399 nm | Abs Max [4, 8]: 376 nm

CC(C)(C)OC(=O)N1CCC[C@H]1C(=O)NCCNC(=O)COc1cc(S(=O)(=O)[O-])c2ccc3c(S(=O)(=O)[O-])cc(S(=O)(=O)[O-])c4ccc1c2c43.[Na+].[Na+].[Na+] [Compound 14, N-(1,3,6-Trisulfo-8-pyrenyloxyacetyl)-N'-(N-t-butoxycarbonyl-L-prolyl)-1,2-ethanediamine, trisodium salt]
Quantum Yield [3]: greater than 0.90 | Emission Band-width [4]: 49 nm | Emission at 514 nm [4]: 2.8 % of max | Em Max [4]: 422 nm | Abs Max [4, 9]: 399 nm

CC(C)(C)OC(=O)N1CCC[C@H]1C(=O)NCCCCCNC(=O)COc1cc(S(=O)(=O)O)c2ccc3c(S(=O)(=O)O)cc(S(=O)(=O)O)c4ccc1c2c43 [Compound 15]
Emission Band-width [4]: 50 nm | Emission at 514 nm [4]: 3.0 % of max | Abs Max [4, 9]: 399 nm | Abs Max [4, 8]: 377 nm

N#CCCCCCNC(=O)COc1cc(S(=O)(=O)O)c2ccc3c(S(=O)(=O)O)cc(S(=O)(=O)O)c4ccc1c2c43 [Compound 16]
Emission Band-width [4]: 49 nm | Emission at 514 nm [4]: 3.0 % of max | Abs Max [4, 9]: 399 nm | Abs Max [4, 8]: 377 nm

C=CC(=O)NCCCCCNC(=O)COc1cc(S(=O)(=O)O)c2ccc3c(S(=O)(=O)O)cc(S(=O)(=O)O)c4ccc1c2c43 [Compound 19]
Emission Band-width [4]: 49 nm | Emission at 514 nm [4]: 2.9 % of max | Abs Max [4, 9]: 399 nm

[N-]=[N+]=Nc1ccc(C(=O)NCCCCCNC(=O)COc2cc(S(=O)(=O)[O-])c3ccc4c(S(=O)(=O)[O-])cc(S(=O)(=O)[O-])c5ccc2c3c54)cc1.[Na+].[Na+].[Na+] [Compound 20, N-(1,3,6-Trisulfo-8-pyrenyloxyacetyl)-N'-(4-azidobenzoyl)-1,5-pentanediamine, trisodium salt]
Emission Band-width [4]: 50 nm | Emission at 514 nm [4]: 3.5 % of max | Em Max [4]: 424 nm | Abs Max [4, 9]: 400 nm

COC(=O)COc1cc(OCC(=O)OC)c2ccc3c(S(=O)(=O)O)cc(S(=O)(=O)O)c4ccc1c2c43 [Compound 21, Dimethyl 1,3-disulfo-6-carboxymethoxy-8-pyrenyloxyacetic acid, disodium salt]
Emission Band-width [4]: 55 nm | Emission at 514 nm [4]: 13.0 % of max | Em Max [4]: 447 nm | ε ([4]; at first maximum): 24.5 10^3 M^-1 cm^-1 | Abs Max [4, 9]: 396 nm

CN(C)c1cccc2c(S(=O)(=O)O)cccc12 [Dansyl, 5-dimethylaminonaphthalene-1-sulfonic acid]
Water Solubility [1]: low | Em. Max. [2]: 578 nm | ε [2]: 4500 M⁻¹ cm⁻¹ | Abs Max [2]: 340 nm | Quantum Yield [2]: low

O=S(=O)(O)c1cc(N=C=S)c2ccc3c(S(=O)(=O)O)cc(S(=O)(=O)O)c4ccc1c2c34 [IPTS, 8-isothiocyanatopyrene-1,3,6-trisulfonic acid]
Water Solubility [1]: high | Em. Max. [2]: 458 nm | ε [2]: 25600 M⁻¹ cm⁻¹ | Abs Max [2]: 373 nm | Emission Bandwidth [2]: 78 nm | Emission Bandwidth [cm^-1] [2]: 3634 cm⁻¹ | Quantum Yield [2]: low | % Emission at 514 nm [2]: 38 % of max

O=C(O)CCCc1ccc2ccc3cccc4ccc1c2c34 [PBA, pyrene-1-butyric acid]
Water Solubility [1]: low | Em. Max. [2]: 377 nm | ε [2]: 45100 M⁻¹ cm⁻¹ | Abs Max [2]: 341 nm | Quantum Yield [2]: low | % Emission at 514 nm [2]: 2 % of max

O=C1OC2(c3ccc(O)cc3Oc3cc(O)ccc32)c2ccccc21 [fluorescein]
extinction coefficient ([6]; at absorbance maximum): 75,000 cm^-1 M^-1 | emission onset ([6]; beginning of visible emission): approximately 480 nm

O=S(=O)(Cl)c1cc(O)c2ccc3c(S(=O)(=O)Cl)cc(S(=O)(=O)Cl)c4ccc1c2c34 [hydroxypyrenetrisulfonyl chloride, 8-hydroxypyrene-1,3,6-trisulfonyl chloride]
sensitivity to solution pH [5]: high sensitivity to solution pH

Cc1c(CC(=O)ON2C(=O)CCC2=O)c(=O)oc2cc(N)ccc12 [succinimidyl ester of AMCA]
aqueous solubility / lipophilicity [7]: quite lipophilic and insoluble in the aqueous solutions

O=C(CCCc1ccc2ccc3cccc4ccc1c2c34)ON1C(=O)CCC1=O [succinimidyl pyrene-1-butyrate]
aqueous solubility / lipophilicity [7]: quite lipophilic and insoluble in the aqueous solutions
